# Earlier results, collected in patent US6297274A, “Nonpeptide endothelin antagonists with increased water solubility” (priority 1998, dated 2001).
# Where a SMILES comes first, the peptide text is derived from it. [ ]: non-standard residue; d: D form.
# How the values were obtained:
# [1] = test system: vasoconstriction of the basilar artery; settings: after 7 days, canine two-hemorrhage model; cited from earlier work
# [2] = test system: ET-1 induced bronchoconstriction and tracheal smooth muscle contraction; settings: allergic sheep; cited from earlier work
# [3] = test system: rat hypoxia model of hypertension; settings: cited from earlier work
# [4] = test system: early cerebral vasospasm following subarachnoid hemorrhage (SAH); settings: in vivo; cited from earlier work
# [5] = test system: ET-1-induced gastric ulceration; settings: in vivo; cited from earlier work
# [6] = test system: early cerebral vasospasm following SAH in the rat; settings: cited from earlier work
# [7] = test system: liver; settings: cited from earlier work
# [8] = test system: small intestinal mucosa; settings: rats, local intra-arterial; cited from earlier work
compound,measurement,setting,value
FR 139317,vasoconstriction of the basilar artery,[1],significantly inhibited the vasoconstriction of the basilar artery
CC(C)C[C@@H]1NC(=O)[C@@H](C(C)C)NC(=O)[C@@H]2CCCN2C(=O)[C@@H](CC(=O)O)NC(=O)[C@@H](Cc2c[nH]c3ccccc23)NC1=O [BQ-123] (cyclo(L[dW][dD]P[dV])),ET-1 induced bronchoconstriction and tracheal smooth muscle contraction,[2],shown to block ET-1 induced bronchoconstriction and tracheal smooth muscle contraction in allergic sheep
same,pulmonary vascular resistance and pulmonary arterial pressure,[3],provide protection in a rat hypoxia model of hypertension by lowering the increase in pulmonary vascular resistance and pulmonary arterial pressure
same,early cerebral vasospasm following SAH,[4],prevent early cerebral vasospasm following subarachnoid hemorrhage (SAH)
COc1ccccc1Oc1c(NS(=O)(=O)c2ccc(C(C)(C)C)cc2)nc(-c2ncccn2)nc1OCCO [Bosentan],pulmonary vascular resistance and pulmonary arterial pressure,[3],provide protection in a rat hypoxia model of hypertension by lowering the increase in pulmonary vascular resistance and pulmonary arterial pressure
same,ET-1-induced changes in gastric mucosal hemodynamics and gastric ulceration,[5],antagonist toward the ET-1-induced changes in gastric mucosal hemodynamics as well as on ET-1-induced gastric ulceration
COc1cccc(Oc2c(NS(=O)(=O)c3ccc(C(C)(C)C)cc3)ncnc2OCCO)c1 [Ro 46-2005],early cerebral vasospasm following SAH,[6],prevent early cerebral vasospasm following SAH in the rat
endothelin,hepatic vasculature vasoconstriction and hepatic glucose output,[7],eliciting both sustained vasoconstriction of the hepatic vasculature and a significant increase in hepatic glucose output
same,small intestinal mucosal damage,[8],shown to induce small intestinal mucosal damage in rats in a dose-dependent manner
